For the series, the system named is rodent lifetime carcinogenesis bioassay, tumor incidence TD50. As to the kind of experiment: chronic cancer bioassays in animals – CPDB, compiled studies (AID 1745844).

The source made the active and inactive calls. No rule for the calls is given here.

A word on the TD50: it is the dose at which the toxic effect under study appears in half of the subjects. Turning to `S=C([S-])NCCNC(=S)[S-].[Mn+2]`, the TD50 is, setting by setting: (mouse, strain B6AKF1, females, oral dosing, site: any site (literature study), lesion: several types, types named in the paper, dosed 76 weeks, study length 76 weeks) 138 mg/kg/day (inactive); (mouse, strain B6AKF1, males, oral dosing, site: any site (literature study), lesion: several types, types named in the paper, dosed 76 weeks, study length 76 weeks) 106 mg/kg/day (inactive); (mouse, strain B6AKF1, males, oral dosing, site: lung, lesion: adenoma, dosed 76 weeks, study length 76 weeks) 54.9 mg/kg/day (inactive); (mouse, strain B6C3F1, males, oral dosing, site: any site (literature study), lesion: several types, types named in the paper, dosed 76 weeks, study length 76 weeks) 62.3 mg/kg/day (inactive); (mouse, strain B6C3F1, males, oral dosing, site: liver, lesion: hepatoma, dosed 76 weeks, study length 76 weeks) 128 mg/kg/day (inactive); (mouse, strain B6C3F1, males, oral dosing, site: lung, lesion: adenoma, dosed 76 weeks, study length 76 weeks) 128 mg/kg/day (inactive). Besides, the TD50 (rat, strain Mongrel, both sexes, by gavage, site: any site (literature study), lesion: several types, types named in the paper, dosed 95 weeks, study length 104 weeks) was 157 mg/kg/day. Besides, the carcinogen call runs as follows: (mouse, strain B6AKF1, females, oral dosing, site: liver, lesion: hepatoma, dosed 76 weeks, study length 76 weeks) “negative (inactive)”; (mouse, strain B6AKF1, females, oral dosing, site: lung, lesion: adenoma, dosed 76 weeks, study length 76 weeks) “negative (inactive)”; (mouse, strain B6AKF1, males, oral dosing, site: liver, lesion: hepatoma, dosed 76 weeks, study length 76 weeks) “negative (inactive)”; (mouse, strain B6C3F1, females, oral dosing, site: any site (literature study), lesion: one or several types, types not named, dosed 76 weeks, study length 76 weeks) “negative (inactive)”; (mouse, strain B6C3F1, females, oral dosing, site: liver, lesion: hepatoma, dosed 76 weeks, study length 76 weeks) “negative (inactive)”; (mouse, strain B6C3F1, females, oral dosing, site: lung, lesion: several types, types named in the paper, dosed 76 weeks, study length 76 weeks) “negative (inactive)”.

For `Cc1cc(C)nc(NS(=O)(=O)c2ccc(N)cc2)n1`, the TD50 turned out to be 2820 mg/kg/day (mouse, strain B6C3F1, females, in feed, site: liver, lesion: hepatocellular adenoma, dosed 78 weeks, study length 78 weeks); 12300 mg/kg/day (mouse, strain B6C3F1, females, in feed, site: liver, lesion: hepatocellular adenoma, dosed 104 weeks, study length 104 weeks); 16500 mg/kg/day (mouse, strain B6C3F1, females, in feed, site: liver, lesion: hepatocellular carcinoma, dosed 104 weeks, study length 104 weeks); 8740 mg/kg/day (mouse, strain B6C3F1, females, in feed, site: liver, lesion: several types, types named in the paper, dosed 104 weeks, study length 104 weeks); 3100 mg/kg/day (mouse, strain B6C3F1, females, in feed, site: lung, lesion: alveolar/bronchiolar carcinoma, dosed 52 weeks, study length 52 weeks); 12700 mg/kg/day (mouse, strain B6C3F1, females, in feed, site: lung, lesion: alveolar/bronchiolar carcinoma, dosed 104 weeks, study length 104 weeks). The TD50 reads like this: (mouse, strain B6C3F1, females, in feed, site: thyroid gland, lesion: follicular-cell adenoma, dosed 78 weeks, study length 78 weeks) 618 mg/kg/day; (mouse, strain B6C3F1, females, in feed, site: thyroid gland, lesion: follicular-cell adenoma, dosed 104 weeks, study length 104 weeks) 2160 mg/kg/day; (mouse, strain B6C3F1, females, in feed, site: thyroid gland, lesion: follicular-cell carcinoma, dosed 104 weeks, study length 104 weeks) 54800 mg/kg/day; (mouse, strain B6C3F1, females, in feed, site: thyroid gland, lesion: several types, types named in the paper, dosed 104 weeks, study length 104 weeks) 2060 mg/kg/day; (mouse, strain B6C3F1, males, in feed, site: liver, lesion: hepatocellular adenoma, dosed 104 weeks, study length 104 weeks) 14900 mg/kg/day; (mouse, strain B6C3F1, males, in feed, site: liver, lesion: several types, types named in the paper, dosed 104 weeks, study length 104 weeks) 11700 mg/kg/day. In addition, the TD50 is 3370 mg/kg/day (mouse, strain B6C3F1, males, in feed, site: thyroid gland, lesion: follicular-cell adenoma, dosed 78 weeks, study length 78 weeks); 1220 mg/kg/day (mouse, strain B6C3F1, males, in feed, site: thyroid gland, lesion: follicular-cell adenoma, dosed 104 weeks, study length 104 weeks); 72100 mg/kg/day (mouse, strain B6C3F1, males, in feed, site: thyroid gland, lesion: follicular-cell carcinoma, dosed 104 weeks, study length 104 weeks); 1190 mg/kg/day (mouse, strain B6C3F1, males, in feed, site: thyroid gland, lesion: several types, types named in the paper, dosed 104 weeks, study length 104 weeks).

Turning to `C[C@@H]1CCCCN1N=O`, the TD50 is, setting by setting: (rat, strain Sprague-Dawley, both sexes, in drinking water, site: any site (literature study), lesion: malignant tumor, dosed 104 weeks, study length 104 weeks) 20.4 mg/kg/day; (rat, strain Sprague-Dawley, both sexes, in drinking water, site: liver, lesion: hepatocellular adenoma, dosed 104 weeks, study length 104 weeks) 108 mg/kg/day; (rat, strain Sprague-Dawley, both sexes, in drinking water, site: n. olfactorius, lesion: ependymoblastoma, dosed 104 weeks, study length 104 weeks) 22.1 mg/kg/day.

On to `CCCCN(N)C=O`, for which the TD50 was 252 mg/kg/day (mouse, strain Swiss albino, females, in drinking water, site: clitoral gland, lesion: several types, types named in the paper, dosed 92 weeks, study length 92 weeks); 321 mg/kg/day (mouse, strain Swiss albino, females, in drinking water, site: clitoral gland, lesion: squamous-cell carcinoma, dosed 92 weeks, study length 92 weeks); 19.4 mg/kg/day (mouse, strain Swiss albino, females, in drinking water, site: lung, lesion: several types, types named in the paper, dosed 92 weeks, study length 92 weeks); 19.2 mg/kg/day (mouse, strain Swiss albino, males, in drinking water, site: lung, lesion: several types, types named in the paper, dosed 90 weeks, study length 90 weeks); 519 mg/kg/day (mouse, strain Swiss albino, males, in drinking water, site: preputial gland, lesion: angiosarcoma, dosed 90 weeks, study length 90 weeks); 304 mg/kg/day (mouse, strain Swiss albino, males, in drinking water, site: preputial gland, lesion: fibrosarcoma, dosed 90 weeks, study length 90 weeks). Moreover, the TD50 is, setting by setting: (mouse, strain Swiss albino, males, in drinking water, site: preputial gland, lesion: several types, types named in the paper, dosed 90 weeks, study length 90 weeks) 28.2 mg/kg/day; (mouse, strain Swiss albino, males, in drinking water, site: preputial gland, lesion: squamous-cell carcinoma, dosed 90 weeks, study length 90 weeks) 35.6 mg/kg/day. Besides, the carcinogen call (mouse, strain Swiss albino, males, in drinking water, site: liver, lesion: angioma, dosed 90 weeks, study length 90 weeks) is “negative (inactive)”.

As to `CC(=O)OC1CC(C)OC(C)O1` (stereo unspecified), the TD50 was 3380 mg/kg/day (inactive) (mouse, strain B6C3F1, females, by gavage, site: any site (literature study), lesion: several types, types named in the paper, dosed 103 weeks, study length 104 weeks); 10400 mg/kg/day (mouse, strain B6C3F1, females, by gavage, site: lung, lesion: alveolar/bronchiolar adenoma + alveolar/bronchiolar carcinoma, dosed 103 weeks, study length 104 weeks); 1820 mg/kg/day (mouse, strain B6C3F1, males, by gavage, site: any site (literature study), lesion: several types, types named in the paper, dosed 103 weeks, study length 104 weeks); 1440 mg/kg/day (mouse, strain B6C3F1, males, by gavage, site: forestomach, lesion: squamous-cell carcinoma + squamous-cell papilloma, dosed 103 weeks, study length 104 weeks); 1180 mg/kg/day (mouse, strain B6C3F1, males, by gavage, site: liver, lesion: hepatocellular adenoma + hepatocellular carcinoma + neoplastic nodule, dosed 103 weeks, study length 104 weeks); 1450 mg/kg/day (mouse, strain B6C3F1, males, by gavage, site: lung, lesion: alveolar/bronchiolar adenoma + alveolar/bronchiolar carcinoma, dosed 103 weeks, study length 104 weeks). Further, the TD50 was 2430 mg/kg/day (rat, strain Fischer 344, females, by gavage, site: liver, lesion: hepatocellular adenoma + hepatocellular carcinoma + neoplastic nodule, dosed 103 weeks, study length 104 weeks); 29800 mg/kg/day (rat, strain Wistar, males, in drinking water, site: all sites, lesion: lymphosarcoma, dosed 87 weeks, study length 100 weeks); 6770 mg/kg/day (rat, strain Wistar, males, in drinking water, site: all sites, lesion: myelogenous leukemia, dosed 87 weeks, study length 100 weeks); 419 mg/kg/day (rat, strain Wistar, males, in drinking water, site: any site (literature study), lesion: several types, types named in the paper, dosed 87 weeks, study length 100 weeks); 6770 mg/kg/day (rat, strain Wistar, males, in drinking water, site: kidney, lesion: papillary transitional-cell carcinoma, dosed 87 weeks, study length 100 weeks); 716 mg/kg/day (rat, strain Wistar, males, in drinking water, site: liver, lesion: hepatoma, dosed 87 weeks, study length 100 weeks). Besides, the TD50 was 6770 mg/kg/day (rat, strain Wistar, males, in drinking water, site: skin, lesion: epidermoid carcinoma, dosed 87 weeks, study length 100 weeks) and 6770 mg/kg/day (rat, strain Wistar, males, in drinking water, site: subcutaneous tissue, lesion: fibrosarcoma, dosed 87 weeks, study length 100 weeks). Further, the carcinogen call by setting is: (rat, strain Fischer 344, females, by gavage, site: any site (literature study), lesion: several types, types named in the paper, dosed 103 weeks, study length 104 weeks) “negative (inactive)”; (rat, strain Fischer 344, males, by gavage, site: any site (literature study), lesion: several types, types named in the paper, dosed 103 weeks, study length 104 weeks) “negative (inactive)”.

Consider `CCCCC1(COC(=O)CCC(=O)O)C(=O)N(c2ccccc2)N(c2ccccc2)C1=O`, for which the carcinogen call is “negative (inactive)” (rat, strain F344/DuCrj, females, in feed, site: liver, lesion: one or several types, types not named, dosed 104 weeks, study length 104 weeks); “negative (inactive)” (rat, strain F344/DuCrj, males, in feed, site: liver, lesion: hepatocellular adenoma, dosed 104 weeks, study length 104 weeks); “negative (inactive)” (rat, strain F344/DuCrj, males, in feed, site: liver, lesion: hepatocellular carcinoma, dosed 104 weeks, study length 104 weeks). Moreover, where the note is “rat, strain F344/DuCrj, males, in feed, site: adrenal gland, lesion: pheochromocytoma, dosed 104 weeks, study length 104 weeks”, the TD50 was 471 mg/kg/day (inactive).

For the compound `CC(=O)c1ccc(S(=O)(=O)NC(=O)NC2CCCCC2)cc1`, the carcinogen call runs as follows: (mouse, strain B6C3F1, females, in feed, site: any site (literature study), lesion: several types, types named in the paper, dosed 103 weeks, study length 107 weeks) “negative (inactive)”; (rat, strain Fischer 344, females, in feed, site: any site (literature study), lesion: several types, types named in the paper, dosed 103 weeks, study length 106 weeks) “negative (inactive)”. Further, the TD50 is, setting by setting: (mouse, strain B6C3F1, males, in feed, site: any site (literature study), lesion: several types, types named in the paper, dosed 103 weeks, study length 107 weeks) 2370 mg/kg/day (inactive); (rat, strain Fischer 344, males, in feed, site: all sites, lesion: leukemia, dosed 103 weeks, study length 105 weeks) 527 mg/kg/day (inactive); (rat, strain Fischer 344, males, in feed, site: any site (literature study), lesion: several types, types named in the paper, dosed 103 weeks, study length 105 weeks) 2120 mg/kg/day; (rat, strain Fischer 344, males, in feed, site: liver, lesion: hepatocellular adenoma + hepatocellular carcinoma + neoplastic nodule, dosed 103 weeks, study length 105 weeks) 16600 mg/kg/day.

`O=NN1CC(=O)NC1=O`: the TD50 (rat, strain MRC-Wistar, females, in drinking water, site: any site (literature study), lesion: several types, types named in the paper, dosed 52 weeks, study length 110 weeks) is 19.6 mg/kg/day; the TD50 (rat, strain MRC-Wistar, males, in drinking water, site: any site (literature study), lesion: several types, types named in the paper, dosed 52 weeks, study length 110 weeks) stood at 7.31 mg/kg/day; the TD50 (rat, strain MRC-Wistar, males, in drinking water, site: forestomach, lesion: squamous-cell papilloma, dosed 52 weeks, study length 110 weeks) stood at 27.8 mg/kg/day; the TD50 (rat, strain MRC-Wistar, males, in drinking water, site: pharynx, lesion: squamous-cell carcinoma, dosed 52 weeks, study length 110 weeks) is 43.8 mg/kg/day.

Source of the values: PubChem BioAssay AID1745844 (Carcinogenic Potency Database (CPDB), 2022).
